Positions of bridges follow the written chain, without caps; N, C: chain ends. Non-standard residues stand in square brackets, D forms with d. Residues, ends and D or L forms follow the SMILES beside them. Bip = N[C@@H](Cc1ccc(-c2ccccc2)cc1)C(=O)O; Hyp = O=C(O)[C@@H]1C[C@@H](O)CN1; Nle = CCCC[C@H](N)C(=O)O; Orn = NCCC[C@H](N)C(=O)O; Abu = CC[C@H](N)C(=O)O; Sar = CNCC(=O)O
What was measured:
[1] = In vitro plasma stability and predicted half-life (HPLC main peak area, Example 3); format: in vitro ADME; details: human plasma (EDTA anticoagulant), 37°C, sampled up to 24 h, predicted half-life calculated with Winolin
Description: The modified peptides in this study were designed with non-natural amino acid substitutions at certain non-essential positions to enhance peptide stability and improve druggability. Peptides were dissolved in deionized water to 2 mg/mL, then diluted with acetonitrile to 1 mg/mL and filtered through an organic membrane. 200 µL of the filtrate was transferred to an LC vial as the peptide control. 300 µL of human plasma (comprising EDTA as anticoagulant, Nanjing Senbeijia Biotechnology Co., Ltd., Lot No. SBJ-P-HU011-100 mL) was mixed with 300 µL acetonitrile, centrifuged at 4°C and 12,000 rpm for 5 minutes. The supernatant was filtered through an organic membrane, and 200 µL of the filtrate was transferred to an LC vial as the plasma blank control. For peptide samples, 10 mg of peptide was weighed mixed with 5 mL of human plasma and vortexed thoroughly. 300 µL of peptide-containing plasma was mixed with 300 µL acetonitrile, centrifuged at 4°C and 12,000 rpm for 5 minutes, and the supernatant was filtered through an organic membrane. 200 µL of the filtrate was transferred to an LC vial as the 0 min sample. Peptide-containing plasma was incubated in a 37°C water bath, and samples at other time points were collected using the same procedure as the 0 min sample. For peptides AJ003 and AJ003-1, the sampling time points were 0 min, 5 min, 10 min, 20 min, 30 min, 1 h, 2 h, 4 h, 6 h, 10 h, 12 h, and 24 h. For modified peptides AJ003-34, AJ003-35, AJ003-36, AJ003-37, AJ003-38, AJ003-39, AJ003-40, AJ003-41, and AJ003-42, the time points were 0 min, 10 min, 30 min, 1 h, 4 h, 6 h, 10 h, 12 h, and 24 h. All peptide sample series were analyzed by HPLC, recording the changes in main peak areas over plasma incubation time. Predicted in vitro half-lives were calculated using the pharmacokinetic software Winolin. Due to the presence of tautomers, AJ003 peak areas were difficult to integrate accurately over time. AJ003-1 is an analog of AJ003 in which the threonine at position 5 is substituted with D-threonine; its sequence differs from AJ003 by only one amino acid configuration. […] The in vitro plasma half-lives of modified peptides AJ003-34, AJ003-35, AJ003-36, AJ003-37, AJ003-38, AJ003-39, AJ003-40, AJ003-41, and AJ003-42 were 61.9 h, 45.3 h, 65.3 h, 71.0 h, 26.7 h, 43.0 h, 84.0 h, 30.0 h, and 61.4 h, respectively.

α7 nAChR = α7 nAChR (Homo sapiens, UniProt P36544); test: BLI (biolayer interferometry) affinity of peptides to α7 nAChR; format: binding; set-up: inferred from the 'similar' procedure on NTA sensors; details: NTA sensor, α7 nAChR 20 µg/mL, peptide 1.372-1000 nM in PBS
Description: BLI is a label-free technology that converts optical interference signals occurring on the surface of BLI biosensors into real-time response signals. By monitoring the molecular binding process in real time, the system determines association rate constants (ka or kon), dissociation rate constants (kd or koff), and initial binding rates, and calculates affinity (KD) by fitting analysis. Here are the specific procedures: NTA sensors (Sartorius) were placed in a pre-wetting tray, which was then positioned in a black 96-well plate with 200 µL PBS per well. The NTA sensors were pre-wetted for at least 15 minutes. The target protein α9 nAChR was diluted in PBS to 5 µg/mL, with 200 µL added per well. Test peptides were dissolved in PBS and serially diluted threefold, with concentrations from high to low as 1000 nM, 333.3 nM, 111.1 nM, 37.04 nM, 12.35 nM, 4.115 nM, and 1.372 nM, with an additional well with PBS only as a zeroconcentration control. After equilibrating the instrument baseline, the NTA sensor was used to immobilize the target protein α9 nAChR. Once immobilization was complete, the baseline was re-equilibrated, followed by a 5-minute association and a 5-minute dissociation phase. Affinity measurements of the test peptides were conducted sequentially using the above procedure. The procedure for measuring peptide affinity to α7 nAChR was similar, except that the α7 nAChR concentration was 20 µg/mL. Tables 2 and 3 show the BLI-determined affinities of alanine-scan peptide analogs with target proteins, which identified sites on the parent peptide suitable for modification. Subsequently, single-site non-natural amino acid substituted peptides were evaluated by BLI for target protein affinity. Finally, multi-site combinatorial modified peptides were measured for affinity by BLI, leading to the selection of high-affinity peptides for further screen and drug development potential. Table 2 Test Results for Affinity of Modified Peptides to α9 nAChR

SMILES | half-life at 2 mg/mL [1] [h] | Kd (α7 nAChR) [µM]
CC(C)C[C@H](NC(=O)[C@@H](NC(=O)[C@H]1CSSC[C@H](NC(=O)[C@H](CO)NC(=O)CN)C(=O)N[C@@H](CO)C(=O)N[C@H]([C@H](C)O)C(=O)N2CCC[C@H]2C(=O)N2CCC[C@H]2C(=O)N[C@@H](CO)C(=O)N1)C(C)C)C(=O)N[C@@H](Cc1ccc(O)cc1)C(=O)N[C@@H](CO)C(=O)O [AJ003-1, GSCS-(D-Thr)-PPS-(D-Cys)-VLYS (3,9 disulfide bond)] (H-GSCS[dT]PPS[dC]VLYS-OH; disulfide 3-9) | ~10.8 | –
CC(C)C[C@H](NC(=O)[C@@H](NC(=O)[C@H]1CSSC[C@H](NC(=O)[C@H](CO)NC(=O)CN)C(=O)N[C@@H](CO)C(=O)N[C@H]([C@H](C)O)C(=O)N2CCC[C@H]2C(=O)N2CCC[C@H]2C(=O)N[C@@H](CO)C(=O)N1)C(C)C)C(=O)N[C@@H](Cc1ccc(O)cc1)C(=O)N[C@@H](CO)C(N)=O [AJ003-4, GSCS-(D-Thr)-PPS-(D-Cys)-VLYS-NH2 (3,9 disulfide bond)] (H-GSCS[dT]PPS[dC]VLYS-NH2; disulfide 3-9) | – | 0.339
CC(C)C[C@H](NC(=O)[C@@H](NC(=O)[C@H]1CSSC[C@@H](NC(=O)[C@H](CO)NC(=O)CN)C(=O)N[C@@H](CO)C(=O)N[C@H]([C@H](C)O)C(=O)N2CCC[C@H]2C(=O)N2CCC[C@H]2C(=O)N[C@@H](CO)C(=O)N1)C(C)C)C(=O)N[C@@H](Cc1ccc(O)cc1)C(=O)N[C@@H](CO)C(=O)O [AJ003-5, GS-(D-Cys)-S-(D-Thr)-PPS-(D-Cys)-VLYS (3,9 disulfide bond)] (H-GS[dC]S[dT]PPS[dC]VLYS-OH; disulfide 3-9) | – | 0.4
CC(C)C[C@@H](NC(=O)[C@H](NC(=O)[C@H]1CSSC[C@@H](NC(=O)[C@@H](CO)NC(=O)CN)C(=O)N[C@H](CO)C(=O)N[C@H]([C@H](C)O)C(=O)N2CCC[C@@H]2C(=O)N2CCC[C@@H]2C(=O)N[C@H](CO)C(=O)N1)C(C)C)C(=O)N[C@H](Cc1ccc(O)cc1)C(=O)N[C@H](CO)C(=O)O [AJ003-6] (H-G[dS][dC][dS][dT][dP][dP][dS][dC][dV][dL][dY][dS]-OH; disulfide 3-9) | – | 0.532
CNCC(=O)N[C@@H](CO)C(=O)N[C@H]1CSSC[C@H](C(=O)N[C@H](C(=O)N[C@@H](CC(C)C)C(=O)N[C@@H](Cc2ccc(O)cc2)C(=O)N[C@@H](CO)C(=O)O)C(C)C)NC(=O)[C@H](CO)NC(=O)[C@@H]2CCCN2C(=O)[C@@H]2CCCN2C(=O)[C@@H]([C@H](C)O)NC(=O)[C@H](CO)NC1=O [AJ003-8, Sar-SCS-(D-Thr)-PPS-(D-Cys)-VLYS (3,9 disulfide bond)] (H-[Sar]SCS[dT]PPS[dC]VLYS-OH; disulfide 3-9) | – | 6.42
CC[C@H](NC(=O)[C@@H](NC(=O)[C@H]1CSSC[C@H](NC(=O)[C@H](CO)NC(=O)CN)C(=O)N[C@@H](CO)C(=O)N[C@H]([C@H](C)O)C(=O)N2CCC[C@H]2C(=O)N2CCC[C@H]2C(=O)N[C@@H](CO)C(=O)N1)C(C)C)C(=O)N[C@@H](Cc1ccc(O)cc1)C(=O)N[C@@H](CO)C(=O)O [AJ003-28, GSCS-(D-Thr)-PPS-(D-Cys)-V-ABu-YS (3,9 disulfide bond)] (H-GSCS[dT]PPS[dC]V[Abu]YS-OH; disulfide 3-9) | – | 0.69
CCCC[C@H](NC(=O)[C@@H](NC(=O)[C@H]1CSSC[C@H](NC(=O)[C@H](CO)NC(=O)CN)C(=O)N[C@@H](CO)C(=O)N[C@H]([C@H](C)O)C(=O)N2CCC[C@H]2C(=O)N2CCC[C@H]2C(=O)N[C@@H](CO)C(=O)N1)C(C)C)C(=O)N[C@@H](Cc1ccc(O)cc1)C(=O)N[C@@H](CO)C(=O)O [AJ003-29, GSCS-(D-Thr)-PPS-(D-Cys)-V-Nle-YS (3,9 disulfide bond)] (H-GSCS[dT]PPS[dC]V[Nle]YS-OH; disulfide 3-9) | – | 0.674
CC(C)C[C@H](NC(=O)[C@@H](NC(=O)[C@H]1CSSC[C@H](NC(=O)[C@H](CO)NC(=O)CN)C(=O)N[C@@H](CO)C(=O)N[C@H]([C@H](C)O)C(=O)N2CCC[C@H]2C(=O)N2CCC[C@H]2C(=O)N[C@@H](CO)C(=O)N1)C(C)C)C(=O)N[C@@H](Cc1ccc(-c2ccccc2)cc1)C(=O)N[C@@H](CO)C(=O)O [AJ003-32, GSCS-(D-Thr)-PPS-(D-Cys)-VL-Bip-S (3,9 disulfide bond)] (H-GSCS[dT]PPS[dC]VL[Bip]S-OH; disulfide 3-9) | – | 0.375
CC(C)C[C@H](NC(=O)[C@@H](NC(=O)[C@H]1CSSC[C@H](NC(=O)[C@H](CO)NC(=O)CN)C(=O)N[C@@H](CO)C(=O)N[C@H]([C@H](C)O)C(=O)N2CCC[C@H]2C(=O)N2CCC[C@H]2C(=O)N[C@@H](CO)C(=O)N1)C(C)C)C(=O)N[C@@H](Cc1ccc(O)cc1)C(=O)N[C@@H](CCCN)C(N)=O [AJ003-33, GSCS-(D-Thr)-PPS-(D-Cys)-VLY-Orn-NH2 (3,9 disulfide bond)] (H-GSCS[dT]PPS[dC]VLY[Orn]-NH2; disulfide 3-9) | – | 0.4
CCCC[C@H](NC(=O)[C@@H](NC(=O)[C@H]1CSSC[C@H](NC(=O)[C@H](CO)NC(=O)CN)C(=O)N[C@@H](CO)C(=O)N[C@H]([C@H](C)O)C(=O)N2C[C@H](O)C[C@H]2C(=O)N2C[C@H](O)C[C@H]2C(=O)N[C@@H](C)C(=O)N1)C(C)C)C(=O)N[C@@H](Cc1ccc(-c2ccccc2)cc1)C(=O)N[C@@H](CCCN)C(N)=O [AJ003-35, GSCS-(D-Thr)-Hyp-Hyp-A-(D-Cys)-V-Nle-Bip-Orn-NH2 (3,9 disulfide bond)] (H-GSCS[dT][Hyp][Hyp]A[dC]V[Nle][Bip][Orn]-NH2; disulfide 3-9) | 45.3 | 0.142
CCCC[C@H](NC(=O)[C@@H](NC(=O)[C@H]1CSSC[C@H](NC(=O)[C@H](CO)NC(=O)CN)C(=O)N[C@@H](CO)C(=O)N[C@H]([C@H](C)O)C(=O)N2C[C@H](O)C[C@H]2C(=O)N2C[C@H](O)C[C@H]2C(=O)N[C@@H](CO)C(=O)N1)C(C)C)C(=O)N[C@@H](Cc1ccccc1)C(=O)N[C@@H](CCCN)C(N)=O [AJ003-37, GSCS-(D-Thr)-Hyp-Hyp-S-(D-Cys)-V-Nle-F-Orn-NH2 (3,9 disulfide bond)] (H-GSCS[dT][Hyp][Hyp]S[dC]V[Nle]F[Orn]-NH2; disulfide 3-9) | 71 | 0.0687
CCCC[C@H](NC(=O)[C@@H](NC(=O)[C@H]1CSSC[C@H](NC(=O)[C@H](CO)NC(=O)CN)C(=O)N[C@@H](CO)C(=O)N[C@H]([C@H](C)O)C(=O)N2C[C@H](O)C[C@H]2C(=O)N2C[C@H](O)C[C@H]2C(=O)N[C@@H](C)C(=O)N1)C(C)C)C(=O)N[C@@H](Cc1ccccc1)C(=O)N[C@@H](CCCN)C(N)=O [AJ003-38, GSCS-(D-Thr)-Hyp-Hyp-A-(D-Cys)-V-Nle-F-Orn-NH2 (3,9 disulfide bond)] (H-GSCS[dT][Hyp][Hyp]A[dC]V[Nle]F[Orn]-NH2; disulfide 3-9) | 26.7 | 0.187
